Columns and labels:
[1] = tested on: CFTR, genotype 3849 + 10kb C > T/N1303K; assay: CFTR activity by mutation type, 3849 + 10kb C > T/N1303K (Table 7); type: cell-based, human
[2] = biological target: T1, ΔF508-CFTR (Homo sapiens, UniProt P13569, DEL508-508); assay: Ussing measurements, hBEs homozygous for ΔF508; type: cell-based; details: compound at 10 uM and VX-809 at 3 uM, relative to VX-809 (3 uM); 24 h treatment
T1 construct: primary lung epithelial cells (hBEs) homozygous for the Cystic Fibrosis-causing ΔF508 mutation; endogenous in cells; host or cells: primary lung epithelial cells (hBEs) homozygous for ΔF508
Experimental: As discussed above, Ussing measurements can be used to measure CFTR activity. In this example, primary lung epithelial cells (hBEs) homozygous for the Cystic Fibrosis-causing ΔF508 mutation were differentiated for a minimum of 4 weeks in an air-liquid interface on SnapWell filter plates prior to the Ussing measurements. Cells were apically mucus-washed for 30 minutes prior to treatment with compounds. The basolateral media was removed and replaced with media containing the compound of interest diluted to its final concentration from DMSO stocks. Treated cells were incubated at 37° C. and 5% CO2 for 24 hours. […] The short-circuit current was measured in voltage clamp-mode (Vhold=0 mV), and the entire assay was conducted at a temperature of 36° C.-36.5° C. Once the voltages stabilized, the chambers were clamped, and data was recorded by pulse readings every 5 seconds. Following baseline current stabilization, the following additions were applied and the changes in current and resistance of the cells was monitored: • 1. […]
The inhibitable current (that current that is blocked by CFTRinh-172) is measured as the specific activity of the ΔF508-CFTR channel, and increases in response to compound in this activity over that observed in vehicle-treated samples are identified as the correction of ΔF508-CFTR function imparted by the compound tested. […]

[3] = tested on: CFTR, genotype G542X/G542X; assay: CFTR activity by mutation type, G542X/G542X (Table 7); type: cell-based, human
[4] = tested on: CFTR in R117H/F508del HBEs; assay: Ussing measurements, R117H/F508del HBEs; type: cell-based, human; details: genotype R117H/F508del
Experimental: As discussed above, Ussing measurements was used to measure CFTR activity. In this method, primary lung epithelial cells (hBEs) with a Cystic Fibrosis-causing class III mutation were differentiated for a minimum of 4 weeks in an air-liquid interface on SnapWell™ filter plates prior to the Ussing measurements. Cells were apically mucus-washed for 30 minutes prior to treatment with compounds. The basolateral media was removed and replaced with media containing the compound of interest diluted to its final concentration from DMSO stocks. Treated cells were incubated at 37° C. and 5% CO2 for 24 hours. At the end of the treatment period, the cells on filters were transferred to the Ussing chamber and equilibrated for 30 minutes. The short-circuit current was measured in voltage clamp-mode (Vhold=0 mV), and the entire assay was conducted at a temperature of 36° C.-36.5° C. Once the voltages stabilized, the chambers were clamped, and data was recorded by pulse readings every 5 seconds. Following baseline current stabilization, the following additions were applied and the changes in current and resistance of the cells was monitored: • 1. Benzamil to the apical chamber to inhibit ENaC sodium channel. • 2. Forskolin to both chambers to activate ΔF508-CFTR by phosphorylation. • 3. Ivacaftor or Genistein to the apical chamber to potentiate ΔF508-CFTR channel opening. • 4. CFTRinh-172 to the apical chamber to inhibit ΔF508-CFTR Cl-conductance.
The forskolin-sensitive current and inhibitable current (that potentiated current that is blocked by CFTRinh-172) were measured as the specific activity of the ΔF508-CFTR channel, and increase in response to compound in this activity over that observed in vehicle-treated samples were identified as the correction of ΔF508-CFTR function imparted by the compound tested.
The results are shown below in Tables 5 and 6. Compound A is 10 uM and VX-809 is 3 uM and ivacaftor is 1 uM.

[5] = compound A 10uM + ivacaftor 1uM, relative activity of 100% = ivacaftor
[6] = compound A 10uM, relative activity of 100% = ivacaftor (1uM)

T1 sequence (P13569 with tags, fused parts or gaps DEL508-508): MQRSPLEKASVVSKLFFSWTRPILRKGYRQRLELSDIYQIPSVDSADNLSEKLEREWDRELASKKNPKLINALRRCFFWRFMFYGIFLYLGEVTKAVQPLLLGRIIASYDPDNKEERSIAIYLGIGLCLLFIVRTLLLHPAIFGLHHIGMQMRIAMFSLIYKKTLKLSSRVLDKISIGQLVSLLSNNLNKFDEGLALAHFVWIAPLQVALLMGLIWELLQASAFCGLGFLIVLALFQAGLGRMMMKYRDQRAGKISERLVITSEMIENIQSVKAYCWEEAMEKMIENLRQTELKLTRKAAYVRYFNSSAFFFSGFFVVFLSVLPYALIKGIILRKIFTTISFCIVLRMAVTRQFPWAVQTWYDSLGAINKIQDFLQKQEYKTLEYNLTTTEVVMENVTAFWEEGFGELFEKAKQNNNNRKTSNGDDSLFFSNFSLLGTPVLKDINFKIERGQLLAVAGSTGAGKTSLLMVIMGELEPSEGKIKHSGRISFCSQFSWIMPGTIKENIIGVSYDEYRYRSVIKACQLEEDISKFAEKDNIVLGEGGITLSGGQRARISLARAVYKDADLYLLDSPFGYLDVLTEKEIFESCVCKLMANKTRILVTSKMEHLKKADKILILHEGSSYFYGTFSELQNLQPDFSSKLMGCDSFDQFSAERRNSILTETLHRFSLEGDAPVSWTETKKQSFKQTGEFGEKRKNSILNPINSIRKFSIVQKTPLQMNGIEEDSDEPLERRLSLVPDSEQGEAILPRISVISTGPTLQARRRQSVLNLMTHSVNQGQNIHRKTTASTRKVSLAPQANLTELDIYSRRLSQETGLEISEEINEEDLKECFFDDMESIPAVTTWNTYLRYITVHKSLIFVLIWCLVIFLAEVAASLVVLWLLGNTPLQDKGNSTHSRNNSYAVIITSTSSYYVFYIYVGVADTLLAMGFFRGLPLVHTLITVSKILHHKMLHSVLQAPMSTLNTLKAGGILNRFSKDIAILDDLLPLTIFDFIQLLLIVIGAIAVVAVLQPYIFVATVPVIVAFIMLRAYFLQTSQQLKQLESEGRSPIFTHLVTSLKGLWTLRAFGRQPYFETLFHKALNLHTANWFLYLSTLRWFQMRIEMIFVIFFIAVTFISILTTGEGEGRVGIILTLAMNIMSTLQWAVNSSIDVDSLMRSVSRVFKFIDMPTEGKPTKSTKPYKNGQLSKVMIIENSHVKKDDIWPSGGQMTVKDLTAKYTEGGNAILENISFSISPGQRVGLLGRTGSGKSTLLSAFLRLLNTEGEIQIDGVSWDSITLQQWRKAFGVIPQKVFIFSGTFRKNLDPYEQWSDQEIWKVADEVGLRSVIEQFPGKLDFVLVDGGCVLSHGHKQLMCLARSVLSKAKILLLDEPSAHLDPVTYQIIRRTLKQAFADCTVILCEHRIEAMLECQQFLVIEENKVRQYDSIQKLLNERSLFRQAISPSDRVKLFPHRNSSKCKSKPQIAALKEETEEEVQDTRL

SMILES: C[C@@H](O)c1nnc([C@H]2C[C@H](NC(=O)c3cc(-c4ccccc4)no3)C2)o1 [Example 6, N-(trans-3-(5-((R)-1-hydroxyethyl)-1,3,4-oxadiazol-2-yl)cyclobutyl)-3-phenylisoxazole-5-carboxamide]
- Combination with ivacaftor, activity [1, 5]: +++ (+++ indicates activity at 10uM of 100% to <150% of the indicated relative activity treatment)
- Stand Alone activity [1, 6]: ++ (++ indicates activity at 10uM of 50% to <100% of the indicated relative activity treatment)
- Ussing: activity of compound with VX-809, % of VX-809 [2]: ## (## indicates activity ≥200% of VX-809 (3 uM) with compound at 10 uM and VX-809 at 3 uM)
- Combination with NB124, activity ([3]; compound A 10uM + NB124 250 ug/ml, relative activity of 100% = NB124): ++++ (++++ indicates activity at 10uM of >150% of the indicated relative activity treatment)
- Stand Alone activity ([3]; compound A 10uM, relative activity of 100% = NB124 (250 ug/ml)): ++ (++ indicates activity at 10uM of 50% to <100% of the indicated relative activity treatment)
- Combination with ivacaftor, activity [4, 5]: ++++ (++++ indicates activity at 10uM of >150% of the indicated relative activity treatment)
- Stand Alone activity [4, 6]: +++ (+++ indicates activity at 10uM of 100% to <150% of the indicated relative activity treatment)
